{"source": "patent US8371378B2", "about": "“Method for pre-treatment of subterranean sites adjacent to water injection wells” (E. I. du Pont de Nemours and Company, priority 2010, dated 2013)", "key": {"[1]": {"test": "Titration of sand/amine/brine mixture with 10% acetic acid, amine in solution by GC (Example 5)", "conditions": "core sand, brine #2, 10 wt % acetic acid", "description": "(§1) Concentration of amines, in media and water, were analyzed by gas chromatography (GC). An Agilent Model 5890 (Agilent, Wilmington, Del.), GC equipped with a […] and a split/splitless injector, a DB-FFAP column (30 meter length×0.32 millimeter (mm) depth×0.25 micrometer particle size). […] The system was calibrated using a sample of N,N-Dimethyl-1-Dodecaneamine (Aldrich). Helium was used as the carrier gas. A temperature gradient of 50 degrees Celsius (° C.) to 250° C. at 30° C. increase per minute (min) was used. Retention times (in minutes, min) for various chemicals of interest included: N,N-Dimethyl-1-Dodecaneamine (8.08 min); N,N-Dimethyl-1-Tetradecaneamine (8.85 min); N,N-Dimethyl-1-Hexadecane-amine (9.90 min); N,N-Dimethyl-1-Octadecaneamine (10.26 min) and N-Methyl,N-Benzyl)-1-Tetradecaneamine (11.40 min).\nThe same procedure outlined in Example 4 was repeated here to produce the sand/amine mixture. 30.85 grams (gr) of the sand/amine mixture was added to 100 ml of brine #2 (Table 3) to create the sand/amine/brine mixture."}, "[2]": {"test": "Titration of amine coated core sand in brine #2 with 1N HCl, amine in solution by GC (Example 2)", "assay_type": "physicochemical", "conditions": "brine #2, 1N HCl", "description": "Helium was used as the carrier gas.\n38 milligrams (mg) of N N-Dimethyl-1-Dodecanamine (hereafter referred to as “the amine”) was added to 10.210 gr of Pentane. This solution was added to 10.1845 gr of specific sand layers (Oa and Ob) obtained from the Schrader Bluff formation of the Milne Point Unit of the Alaskan North slope. The oil content of the sand was first removed using a mixture of methanol and toluene (50/50, volume/volume) as solvent washes. The solvent mixture was subsequently evaporated off the core sand to produce clean, dry, flowable core sand. This sand was mixed with the amine and pentane solution to produce a slurry. This slurry was thoroughly mixed and the pentane was evaporated off leaving the amine on the sand (hereafter referred to as sand/amine mixture). 100 ml of brine #2 (Table 3) was added to the sand/amine mixture to create the sand/amine/brine mixture. […] The fact that the amine was not detected underlined its strong binding to the sand particles. […] The data underlines the remarkable efficiency of an acid at ionizing and removing the amine from the sand."}, "[3]": {"test": "Titration of sand/amine/brine mixture with 10% nitric acid, amine in solution by GC (Example 4)", "conditions": "core sand, brine #2, 10 wt % nitric acid", "description": "as §1\nThe procedure outlined in Example 2 was used to produce the sand/amine mixture except that 519 mg of the amine, 10 gr of Pentane. and 60.062 gr of sand from the Oa and Ob layers were used. 29.065 gr of this sand/amine mixture was added to 100 ml of brine #2 (Table 3) to create the sand/amine/brine mixture. […] 0.1 ml of 10 weight percent (wt %) nitric acid in water was added to this solution, and the pH and the amine concentration were measured again."}}}
{"smiles": "CCCCCCCCCCCCN(C)C", "note": "[N-N-dimethyl-1-dodeanamine, N N-Dimethyl-1-Dodecanamine]", "values": [{"measurement": "pH of complete ionization and solubilization in the water of the amine", "setting": "[1]", "value": "< 6.7", "unit": "pH"}, {"measurement": "pH of complete ionization and solubilization of the amine in the water", "setting": "[2]", "value": "< 6.0", "unit": "pH"}, {"measurement": "pH of complete ionization and solubilization in the water of the amine", "setting": "[3]", "value": "< 6.7", "unit": "pH"}]}
